Laboratory results from patent publication US20260021061A1, “ARIADNE AND ANALOGS FOR THE TREATMENT OF NEUROLOGICAL AND NEUROMUSCLAR DISORDERS” (priority 2022, published 2026).
pEC50: −log10 of the molar value. Read-outs that look alike come from different tables or passages of the source.

Legend:
[1] = Pharmacokinetic assessment, plasma and brain; assay type: in vivo, male C57BL/6 mice; conditions: for Mean brain Concentration (ng/g): LLOQ 2.06 ng/mL for brain; for AUC(0-t): read-out: AUClast (hr*ng/mL), plasma
Experimental: PK assessments were performed at Sai Life (Telangana, India) according to the following general procedure. A total twenty-seven male C57BL/6 mice were used in this study with 3 mice per time point. Animals were administered subcutaneously at 10 mg/kg dose of test article. The formulation vehicle used was 0.9% normal saline. Blood samples (approximately 60 μL) were collected under light isoflurane anesthesia (Surgivet®) from retro orbital plexus from a set of three mice at 0.08, 0.25, 0.5, 1, 2, 4, 8, 24 and 48 hr. Immediately after blood collection, plasma was harvested by centrifugation at 4000 rpm, 10 min at […] and samples were stored at −70±10° C. until bioanalysis. Following blood collection, immediately animals were sacrificed followed by cutting abdominal vena-cava and whole body was perfused from heart using 10 mL of normal saline. Brain samples were collected from set of three mice at 0.08, 0.25, 0.5, 1, 2, 4, 8, 24 and 48 hr. After isolation, brain samples were rinsed three times in ice cold normal saline (for 5-10 seconds/rinse using ˜5-10 mL normal saline in disposable petri dish for each rinse) and dried on blotting paper. Brain samples were homogenized using ice-cold phosphate buffer saline (pH−7.4). Total homogenate volume was three times the tissue weight. All homogenates were stored below −70±10° C. until bioanalysis. All samples were processed for analysis by protein precipitation method and analyzed with fit-for-purpose LC-MS/MS method (LLOQ=5.16 ng/mL for plasma and 2.06 ng/mL for brain).

[2] = target: 5-HT2B (Homo sapiens, UniProt P41595); test: IP1 agonism (IP1 formation assay), Cerep, Eurofins; assay type: cell-based; design: purchased Cerep, Eurofins (contract assay); conditions: duplicate averages only; for pEC50: 5-HT2b (IP1 agonism), Table 2; for EC50: EC50 (5-HT2B) (M), Table 7, IP1 agonism
From the text: (§1) FIGS. 8A-B Comparison of 5-HT2A (a) and 5-HT2B (b) receptor in IP1 formation assay for selected compounds, performed at Cerep, Eurofins.
(§2) IP1 agonism summary for selected compounds (duplicate averages only), performed at Cerep, Eurofins.

[3] = target: 5-HT2A (Homo sapiens, UniProt P28223); test: IP1 agonism (IP1 formation assay), Cerep, Eurofins; assay type: cell-based; design: purchased Cerep, Eurofins (contract assay); conditions: duplicate averages only; for pEC50: 5-HT2a (IP1 agonism), Table 2; for EC50: EC50 (5-HT2A) (M), Table 7, IP1 agonism
From the text: as §1, §2

[4] = target: T1, Serotonin (5-Hydroxytryptamine) 5-HT2B (Homo sapiens, UniProt P41595); test: SafetyScreen44 271700; assay type: binding; conditions: 10 μM, [3H]Lysergic acid diethylamide (LSD), recombinant
T1 construct: purchased Eurofins-Panlabs (contract screen SafetyScreen44) assay ID 271700
Experimental: (§3) A broad screen of 44 molecular targets (SafetyScreen44, Eurofins-Panlabs) for Ariadne were performed, which includes G protein-coupled receptors, steroid nuclear receptors, ion channels, neurotransmitter transporters, and metabolic and signaling enzymes. Only two molecular targets, 5-HT2A and 5-HT2B receptors, emerged above the positive hit threshold, defined as 50% displacement of standard radioligands by 10 uM concentration of Ariadne (FIG. 1b, and Table 1).
(§4) For species, “H”=human, “R”=rat. Test compound screened at all targets at concentration of 10 μM.

[5] = target: T2, Muscarinic M2 (Homo sapiens, UniProt P08172); test: SafetyScreen44 252710; assay type: binding; conditions: 10 μM; [3H]N-Methylscopolamine; recombinant
T2 construct: purchased Eurofins-Panlabs (contract screen SafetyScreen44) assay ID 252710
Experimental: as §3, §4

[6] = target: T3, Serotonin (5-Hydroxytryptamine) 5-HT1B (Homo sapiens, UniProt P28222); test: SafetyScreen44 271230; assay type: binding; conditions: 10 μM; [3H]GR125743; recombinant
T3 construct: purchased Eurofins-Panlabs (contract screen SafetyScreen44) assay ID 271230
Experimental: as §3, §4

[7] = test system: Glutamate, NMDA, Agonism; test: SafetyScreen44 232810; assay type: binding, rat; conditions: 10 μM; [3H]CGP-39653; cerebral cortex
Experimental: as §3, §4

[8] = target: T4, Histamine H2 (Homo sapiens, UniProt P25021); test: SafetyScreen44 239710; assay type: binding; conditions: 10 μM; [125I]Aminopotentidine; recombinant
T4 construct: purchased Eurofins-Panlabs (contract screen SafetyScreen44) assay ID 239710
Experimental: as §3, §4

[9] = test system: GABAA, Flunitrazepam, Central; test: SafetyScreen44 226600; assay type: binding, rat; conditions: 10 μM; [3H]Flunitrazepam; brain (minus cerebellum)
Experimental: as §3, §4

[10] = target: T5, Cyclooxygenase COX-1 (Homo sapiens, UniProt P23219); test: SafetyScreen44 116030; assay type: biochemical; conditions: 10 μM; Arachidonic acid; recombinant
T5 construct: Eurofins-Panlabs (contract screen) 116030
Experimental: as §3, §4

[11] = test system: rat smooth muscle; conditions: compared to serotonin and (R)-DOM; cited from earlier work
[12] = target: T6, Histamine H1 (Homo sapiens, UniProt P35367); test: SafetyScreen44 239610; assay type: binding; conditions: 10 μM; [3H]Pyrilamine; recombinant
T6 construct: purchased Eurofins-Panlabs (contract screen SafetyScreen44) assay ID 239610
Experimental: as §3, §4

[13] = SC 10 mg/kg, 24 hr, LLOQ 5.16 ng/mL
[14] = SC 10 mg/kg, 48 hr, LLOQ 5.16 ng/mL
[15] = male, C57BL/6, mouse, brain and plasma, SC 10 mg/kg, read-out: Brain/Plasma ratio
[16] = male, C57BL/6, mouse, brain, SC 10 mg/kg, read-out: Mean brain Concentration
[17] = male, C57BL/6, mouse, brain, SC 10 mg/kg, 8 hr, read-out: Mean brain Concentration
[18] = male, C57BL/6, mouse, plasma, SC 10 mg/kg, read-out: Mean plasma Concentration
[19] = male, C57BL/6, mouse, SC 10 mg/kg, brain, read-out: Cmax (ng/g), brain
[20] = male, C57BL/6, mouse, SC 10 mg/kg, brain, read-out: T1/2 (hr), brain (converted)
[21] = male, C57BL/6, mouse, SC 10 mg/kg, brain, read-out: Tmax (hr), brain
[22] = male, C57BL/6, mouse, SC 10 mg/kg, plasma
[23] = male, C57BL/6, mouse, SC 10 mg/kg, plasma, read-out: Cmax (ng/mL), plasma
[24] = male, C57BL/6, mouse, SC 10 mg/kg, plasma, read-out: T1/2 (hr), plasma (converted)
[25] = male, C57BL/6, mouse, SC 10 mg/kg, plasma, read-out: Tmax (hr), plasma

Chain of 5-HT2A (P28223 whole entry): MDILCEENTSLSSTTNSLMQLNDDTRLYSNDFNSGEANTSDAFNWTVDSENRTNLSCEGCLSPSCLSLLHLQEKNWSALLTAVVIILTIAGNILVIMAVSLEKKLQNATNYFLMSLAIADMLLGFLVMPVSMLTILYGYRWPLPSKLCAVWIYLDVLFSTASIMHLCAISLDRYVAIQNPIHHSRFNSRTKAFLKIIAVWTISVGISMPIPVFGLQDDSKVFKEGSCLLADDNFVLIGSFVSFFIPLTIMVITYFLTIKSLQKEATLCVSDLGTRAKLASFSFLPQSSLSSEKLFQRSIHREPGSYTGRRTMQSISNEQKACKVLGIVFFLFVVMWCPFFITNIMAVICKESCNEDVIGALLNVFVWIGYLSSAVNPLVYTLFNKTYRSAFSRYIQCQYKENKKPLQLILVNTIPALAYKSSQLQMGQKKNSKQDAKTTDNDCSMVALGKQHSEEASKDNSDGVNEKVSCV
Chain of 5-HT2B (P41595 whole entry): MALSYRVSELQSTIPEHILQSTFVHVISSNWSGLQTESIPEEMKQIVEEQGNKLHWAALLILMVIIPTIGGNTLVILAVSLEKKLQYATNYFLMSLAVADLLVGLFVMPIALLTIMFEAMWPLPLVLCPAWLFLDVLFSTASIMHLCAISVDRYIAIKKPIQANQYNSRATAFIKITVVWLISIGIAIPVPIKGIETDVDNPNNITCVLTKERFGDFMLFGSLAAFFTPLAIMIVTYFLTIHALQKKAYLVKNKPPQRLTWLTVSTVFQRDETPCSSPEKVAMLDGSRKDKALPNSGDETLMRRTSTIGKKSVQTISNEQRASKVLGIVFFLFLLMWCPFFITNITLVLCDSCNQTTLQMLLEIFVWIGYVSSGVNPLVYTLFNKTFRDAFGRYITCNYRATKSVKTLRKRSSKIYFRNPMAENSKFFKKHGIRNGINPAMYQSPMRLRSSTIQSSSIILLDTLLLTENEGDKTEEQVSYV
T1 sequence (P41595 whole entry): as above
T4 sequence (P25021 whole entry): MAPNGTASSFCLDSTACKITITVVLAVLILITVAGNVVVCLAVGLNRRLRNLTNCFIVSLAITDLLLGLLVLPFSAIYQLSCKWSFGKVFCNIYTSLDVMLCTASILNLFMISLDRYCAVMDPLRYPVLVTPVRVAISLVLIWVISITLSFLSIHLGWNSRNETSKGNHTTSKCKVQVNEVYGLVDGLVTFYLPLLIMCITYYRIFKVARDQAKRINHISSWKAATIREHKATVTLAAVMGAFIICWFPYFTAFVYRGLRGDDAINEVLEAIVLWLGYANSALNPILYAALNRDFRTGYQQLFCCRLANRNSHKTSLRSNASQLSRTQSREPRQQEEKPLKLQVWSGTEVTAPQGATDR
T3 sequence (P28222 whole entry): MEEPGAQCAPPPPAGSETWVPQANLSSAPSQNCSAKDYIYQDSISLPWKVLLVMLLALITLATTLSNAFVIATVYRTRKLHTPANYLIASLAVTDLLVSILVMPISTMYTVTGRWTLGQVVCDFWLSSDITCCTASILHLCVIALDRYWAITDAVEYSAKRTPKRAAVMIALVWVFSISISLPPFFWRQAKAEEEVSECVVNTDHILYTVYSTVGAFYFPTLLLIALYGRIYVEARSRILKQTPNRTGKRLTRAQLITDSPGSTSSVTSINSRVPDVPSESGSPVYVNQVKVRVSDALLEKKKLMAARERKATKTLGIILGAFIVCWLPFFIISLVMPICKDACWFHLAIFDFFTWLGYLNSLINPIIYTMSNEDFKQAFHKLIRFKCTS
T5 sequence (P23219 24-599): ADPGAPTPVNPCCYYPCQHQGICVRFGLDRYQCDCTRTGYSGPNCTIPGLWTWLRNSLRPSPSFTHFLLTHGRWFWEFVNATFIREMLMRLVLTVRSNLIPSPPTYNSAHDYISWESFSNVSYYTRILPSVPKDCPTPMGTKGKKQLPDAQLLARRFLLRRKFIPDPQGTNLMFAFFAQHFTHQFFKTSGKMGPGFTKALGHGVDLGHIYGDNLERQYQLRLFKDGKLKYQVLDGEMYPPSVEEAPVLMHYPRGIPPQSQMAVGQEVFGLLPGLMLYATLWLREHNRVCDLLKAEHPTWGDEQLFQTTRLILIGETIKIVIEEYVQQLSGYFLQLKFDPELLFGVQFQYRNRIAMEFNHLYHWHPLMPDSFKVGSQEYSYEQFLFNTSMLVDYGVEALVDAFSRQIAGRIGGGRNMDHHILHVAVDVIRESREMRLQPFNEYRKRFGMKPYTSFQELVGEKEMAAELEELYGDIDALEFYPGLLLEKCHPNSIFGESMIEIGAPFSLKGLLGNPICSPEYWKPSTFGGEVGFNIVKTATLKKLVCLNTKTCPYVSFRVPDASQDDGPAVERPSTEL
T6 sequence (P35367 whole entry): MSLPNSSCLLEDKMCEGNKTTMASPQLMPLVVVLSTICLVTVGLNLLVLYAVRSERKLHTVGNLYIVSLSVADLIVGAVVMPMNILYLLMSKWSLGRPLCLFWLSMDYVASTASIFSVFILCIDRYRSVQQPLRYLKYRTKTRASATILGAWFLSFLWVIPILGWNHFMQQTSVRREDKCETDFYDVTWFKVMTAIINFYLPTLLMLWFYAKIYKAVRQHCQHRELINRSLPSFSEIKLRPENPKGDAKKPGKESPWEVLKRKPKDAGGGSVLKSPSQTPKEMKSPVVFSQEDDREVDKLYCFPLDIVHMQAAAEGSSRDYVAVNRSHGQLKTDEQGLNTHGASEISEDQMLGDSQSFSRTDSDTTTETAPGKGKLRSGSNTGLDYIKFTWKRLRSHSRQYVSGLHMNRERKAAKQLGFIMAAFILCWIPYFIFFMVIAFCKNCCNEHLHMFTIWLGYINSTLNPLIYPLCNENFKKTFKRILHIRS
T2 sequence (P08172 whole entry): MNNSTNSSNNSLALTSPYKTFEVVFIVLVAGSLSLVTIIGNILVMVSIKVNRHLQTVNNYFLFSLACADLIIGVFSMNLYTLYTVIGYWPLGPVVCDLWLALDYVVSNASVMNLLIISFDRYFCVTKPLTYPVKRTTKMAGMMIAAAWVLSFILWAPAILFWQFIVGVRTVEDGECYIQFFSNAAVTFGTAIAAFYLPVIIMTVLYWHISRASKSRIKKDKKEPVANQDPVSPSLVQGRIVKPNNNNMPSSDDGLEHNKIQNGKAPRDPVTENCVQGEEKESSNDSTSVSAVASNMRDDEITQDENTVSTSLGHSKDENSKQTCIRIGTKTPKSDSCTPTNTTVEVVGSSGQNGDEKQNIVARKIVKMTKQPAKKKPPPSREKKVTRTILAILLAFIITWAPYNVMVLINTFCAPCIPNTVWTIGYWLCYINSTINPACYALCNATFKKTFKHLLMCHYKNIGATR

CCC(N)Cc1cc(OC)c(C(F)(F)F)cc1OC (racemic) [Compound 29, 1-(2,5-dimethoxy-4-(trifluoromethyl)phenyl)butan-2-amine]
Mean brain Concentration (ng/g) ([1]; SC 10 mg/kg, 24 hr): BLQ
Mean plasma Concentration (ng/mL) [1, 13]: BLQ
Mean brain Concentration (ng/g) ([1]; SC 10 mg/kg, 48 hr): BLQ
Mean plasma Concentration (ng/mL) [1, 14]: BLQ
Kp at 0.083 h [1, 15]: 4.66
Kp at 0.25 h [1, 15]: 8.91
Kp at 0.5 h [1, 15]: 8.93
Kp at 1 h [1, 15]: 18.1
Kp at 2 h [1, 15]: 18.2
Kp at 4 h [1, 15]: 15.2
Kp at 8 h ([1]; male, C57BL/6, mouse, brain and plasma, SC 10 mg/kg, 8 hr, read-out: Brain/Plasma ratio): 12.7
concentration at 0.083 hr [1, 16]: 2010 ng/g
concentration at 0.25 hr [1, 16]: 4160 ng/g
concentration at 0.5 hr [1, 16]: 3770 ng/g
concentration at 1 hr [1, 16]: 3900 ng/g
concentration at 2 hr [1, 16]: 1740 ng/g
concentration at 4 hr [1, 16]: 787 ng/g
concentration at 8 hr [1, 17]: 170 ng/g
concentration at 0.083 hr [1, 18]: 431 ng/mL
concentration at 0.25 hr [1, 18]: 467 ng/mL
concentration at 0.5 hr [1, 18]: 422 ng/mL
concentration at 1 hr [1, 18]: 216 ng/mL
concentration at 2 hr [1, 18]: 95.5 ng/mL
concentration at 4 hr [1, 18]: 51.9 ng/mL
concentration at 8 hr ([1]; male, C57BL/6, mouse, plasma, SC 10 mg/kg, 8 hr, LLOQ 5.16 ng/mL, read-out: Mean plasma Concentration): 13.4 ng/mL
Cmax [1, 19]: 4160 ng/g
half-life [1, 20]: 1.79 h
Tmax [1, 21]: 0.25 h
AUC(0-t) [1, 22]: 798 ng·h/mL
Cmax [1, 23]: 467 ng/mL
half-life [1, 24]: 2.11 h
Tmax [1, 25]: 0.25 h
pEC50 [2]: 6.20
EC50 [2]: 4e-07 M
pEC50 [3]: 7.30
EC50 [3]: 6.3e-08 M

CCC(N)Cc1cc(OC)c(C)cc1OC (racemic) [Compound 32, 1-(2,5-dimethoxy-4-methylphenyl)butan-2-amine]
% Response ([4]; listed as (rac)-Ariadne): more than 50%
% Response ([4]; listed as Ariadne): 72%
% Response [5]: 0%
% Response [6]: 12%
% Response [7]: −5%
Mean plasma Concentration (ng/mL) ([1]; SC 10 mg/kg, 8 hr, LLOQ 5.16 ng/mL): BLQ
Mean brain Concentration (ng/g) ([1]; SC 10 mg/kg, 24 hr): BLQ
Mean plasma Concentration (ng/mL) [1, 13]: BLQ
Mean brain Concentration (ng/g) ([1]; SC 10 mg/kg, 48 hr): BLQ
Mean plasma Concentration (ng/mL) [1, 14]: BLQ
Kp at 0.083 h [1, 15]: 2.43
Kp at 0.25 h [1, 15]: 5.93
Kp at 0.5 h [1, 15]: 8.47
Kp at 1 h [1, 15]: 10.2
Kp at 2 h [1, 15]: 9.93
Kp at 4 h [1, 15]: 9.01
concentration at 0.083 hr [1, 16]: 1630 ng/g
concentration at 0.25 hr [1, 16]: 4760 ng/g
concentration at 0.5 hr [1, 16]: 5610 ng/g
concentration at 1 hr [1, 16]: 5240 ng/g
concentration at 2 hr [1, 16]: 1710 ng/g
concentration at 4 hr [1, 16]: 368 ng/g
concentration at 8 hr [1, 17]: 16.2 ng/g
concentration at 0.083 hr [1, 18]: 672 ng/mL
concentration at 0.25 hr [1, 18]: 802 ng/mL
concentration at 0.5 hr [1, 18]: 662 ng/mL
concentration at 1 hr [1, 18]: 512 ng/mL
concentration at 2 hr [1, 18]: 172 ng/mL
concentration at 4 hr [1, 18]: 40.9 ng/mL
Cmax [1, 19]: 5610 ng/g
half-life [1, 20]: 0.89 h
Tmax [1, 21]: 0.5 h
AUC(0-t) [1, 22]: 1180 ng·h/mL
Cmax [1, 23]: 802 ng/mL
half-life [1, 24]: 0.84 h
Tmax [1, 25]: 0.25 h
brain penetration ([1]; mouse, in vivo): high brain penetration
% Response [8]: 21%
% Response [9]: −15%
pEC50 [2]: < 4.49
EC50 [2]: 1.7e-06 M
pEC50 [3]: 5.89
EC50 [3]: 1.8e-06 M
% Response [10]: −31%
serotonergic-like effect [11]: weak serotonergic-like effect
% Response [12]: 13%
